Measurements from patent publication US9623031B2, “Compositions, methods and kits for treating cancer” (priority 2011, dated 2017).
“Also recorded” adds a separate entry of the source.

Columns and labels:
[1] = test system: BCR-ABL^+LSC (Kit^+Sca1^+Lin^−GFP^+); experiment: Apoptosis of BCR-ABL+ LSCs treated ex vivo (annexin V, flow cytometry); assay type: cell-based, mouse
Description: Apoptosis. Apoptosis of LSCs was performed using annexin V as described below in Supplementary Information and Methods.
Apoptosis. The LSCs were diluted in DMEM, resuspended using a 16-gauge needle, and collected by centrifugation. 1×10^5 cells were resuspended in 200 μl of binding buffer (0.1 M HEPES with 1.4 M NaCl, 25 mM CaCl2, pH 7.4). Annexin V FITC (BD Biosciences) was incubated with cells for 15 min on ice followed by flow cytometric analysis.
The ability of CyPGs derived from arachidonic acid (2 series PGs) to induce apoptosis was tested in cultures of LSCs from FV infected mice and in the murine CML model. […] 15d-PGJ2 is known as a PPAPγ agonist. […] In FIG. 7C Δ^12-PGJ3, 15d-PGJ2 or 9,10-dihydro-15d-PGJ2 are tested for their ability to induce apoptosis in a murine CML model. […] The cells were stained with annexin V-FITC and analyzed by flow cytometry. Representative of N=4. […] Inset: Effect of rosiglitazone on the apoptosis of LSC. Rosiglitazone (0.1-2.0 μM) was incubated with LSC in the culture media for 36 h as described earlier and the cells were subjected to annexin-V staining followed by flow cytometry. […] LSC were treated ex vivo with indicated concentrations of each compound for 36 h.
Following 36 h of incubation, apoptotic cells were quantified by annexin V staining. […] In a related study to address if Δ^12-PGJ3 treatment would cause any degranulation of granulocytes, a rat basophilic cell line ([…]) was treated with 100 nM Δ^12-PGJ3 and the degranulation was followed by quantitating the release of histamine and a second marker of degranulation, hexoseaminidase.
In this experiment, 500,000 BCR-ABL+ LSCs were plated in a 24-well plate followed and were treated with 25 nM PGD2Me or 100 nM ZK118182 (both are agonists of DP) for 24 h. GFP^+ cells were analyzed by flow cytometry. These agonists were purchased from Cayman Chemicals, MI.

[2] = test system: blast crisis CML cells from a patient (#011711); experiment: Blast crisis CML patient cells: cytospin and annexin V apoptosis; assay type: cell-based, human
Description: An experiment involving a cytospin of Blast crisis CML (011711) and Geimsa stain was performed. Blast crisis CML were cultured in IMDM with BIT, LDL, L-Glu and treated with PBS or 100 nM Δ^12-PGJ3 for 12 hrs. Cells were collected and slides were done by Cytospin. Cytospin slides were stained with Wright Geimsa stain and pictures (100×) were recorded on a Material microscope.
In this experiment, 110,000/well primary AML cells were cultured in above specified media for 6 and 12 hrs. Cells were collected and washed once with ice cold PBS. The cells were resuspended in 200 ul 1× Apoptosis buffer with annexin-V PE to all tubes. The cells were washed in PBS and resuspended in 600 ul PBS and transfer into flow tubes and analyzed for apoptosis (Annexin V+ cells) on FC-500. […] In this experiment, 110,000/well AML cells were cultured in earlier mentioned media for 6 and 12 hrs. Cells were collected and washed once in PBS and resuspended in 200 ul PBS and blocked with FC receptor antibody 10 mins RT. The following antibodies were added: CD38, CD123, CD34, CD117 (BD bioscience) for 1 hr on ice. Cells were washed in PBS once and resuspended in 200 ul of apoptotic buffer, and annexin V was added and incubated for 15 mins. Apoptotic cells (Annexin V+ cells) were counted by flow cytometry. […] Apoptotic cells (Annexin V+ cells) were counted by flow cytometry.

[3] = test system: normal HSCs (MSCV-GFP^+HSC); experiment: Effect on normal HSCs (MSCV-GFP+ HSC) treated ex vivo
[4] = test system: NF-κB; experiment: NF-κB activation in sorted BCR-ABL+ LSCs (EMSA, Western blot); assay type: cell-based, mouse; conditions: 25 nM, 0-6 h
Description: The effect of Δ^12-PGJ3 on NF-κB and PPAPγ was examined. RAW264.7 macrophages were pretreated with DMSO, Δ^12-PGJ3 at 0.25, or 1.0 μM and subsequently stimulated with 100 ng/mL E. coli LPS for 4 h. The nuclear extracts were prepared and the binding of NΦκB to a ^32P-labeled consensus double stranded oligonucleotide probe was examined using gel shift analysis. NS=non-specific band. Lanes 1-5 represent untreated, LPS alone, DMSO+LPS, Δ^12-PGJ3 (0.25 μM)+LPS, and Δ^12-PGJ3 (1 μM)+LPS, respectively. BCR-ABL LSCs were sorted from spleens, plated, and treated with PBS, 25 nM Δ^12-PGJ3, or 9,10-dihydro 15d-PGJ2 for 0, 2 or 6 h. The cells were harvested and nuclear extracts were prepared using standard techniques. Ten μg of nuclear protein was used from each sample for the gel-shift reaction. As a positive control for NF-κB, nuclear extract from LPS-treated murine (RAW264.7) macrophages was used. Anti-p50 Ab was used with this positive control for a supershift, and excess ‘cold’ probe was used with the positive control as a ‘cold competitor’. A Western blot analysis was performed of the above-mentioned nuclear extracts from BCR-ABL LSCs treated with PBS, Δ^12-PGJ3 or 9,10-dihydro-15d-PGJ2 for various time periods (0-6 h) probed with anti-p65 and anti-β-actin antibodies. […]

[5] = test system: Human unfractionated bone marrow cells
Description: Human unfractionated bone marrow cells (5×10^5 per well) were plated in methylcellulose complete media containing IL-3, GM-CSF, G-CSF, SCF and Epo supplemented with the indicated concentrations of drugs. Total colonies were counted after 12 days.

[6] = test system: BCR-ABL^+LSC transplanted mice; experiment: Murine CML model: mice transplanted with BCR-ABL+ LSCs; assay type: in vivo, mouse
Description: Induction of CML using MIGR-BCR-ABL retrovirus: MIGR-BCR-ABL and control MSCV-GFP retroviruses were obtained. […] C57BL/6 mice were treated with 5-fluorouracil (5-FU; 150 mg/Kg, Sigma, St. Louis, Mo.) to enrich for cycling HSCs. On day four after treatment bone marrow cells were harvested and infected with MIGR-BCR-ABL or MSCV-GFP control virus overnight in IMDM media containing 5% FCS and supplemented with 2.5 ng/ml IL-3 and 15 ng/ml SCF (R&D Systems Minneapolis, Minn.). 0.5×10^6 transduced cells were transplanted by retro-orbital injection into C57BL/6 recipient mice that were preconditioned with 950 Rads of irradiation. In order to increase the number of CML and control mice, 17 days after transplant GFP^+ spleen cells were isolated by FACS and 1×10^5 GFP^+ cells were transplanted into irradiated (950 Rads) secondary C57BL/6 recipients. Two weeks after transplant, mice were treated as indicated with CyPGs and vehicle control. For ex-vivo experiments, Kit^+Sca1^+Lin^−GFP^+ cells were isolated from the bone marrow or spleen of transplanted mice by FACS. The sorted cells were cultured in Methocult media M3334 (Stem Cell Technologies Vancouver BC) M3334 supplemented with Shh, SCF, and BMP4 and treated with the indicated CyPGs and vehicle controls for indicated time periods. […] The hematopoietic colonies (colony forming cells in culture, CFC) were scored.
Treatment of Mice with PGs: Mice with FV-induced erythroleukemia or MIGR-BCR-ABL induced CML were treated on the indicated days with CyPGs. Mice were treated with a daily intraperitoneal injection of Δ^12-PGJ3 (0.01-0.1 mg/kg), 15d-PGJ2 (0.1 mg/kg), or 9,10-dihydro-15d-PGJ2 (0.1 mg/kg) for 7 days. All three compounds were formulated with hydroxypropyl-β-cyclodextrin (30% w/v; Sigma; vehicle control).

SMILES: CC/C=C\C[C@H](O)C/C=C1/C(=O)C=C[C@@H]1C/C=C\CCCC(=O)O [Δ^12-PGJ3, Δ^12-prostaglandin J3]
- apoptosis of BCR-ABL+LSCs ([1]; 25 nM, annexin V, caspase 3 and caspase 8 activation): significant increase in apoptosis; also recorded: highly susceptible to apoptosis
- apoptosis of Sca1+GFP+Kit+ BCR-ABL+LSC from spleen ([1]; 25-1000 nM, 36 h): significantly increased their apoptosis
- IC50 ([1]; Kit+Sca1+Lin−GFP+ LSCs from spleen of BCR-ABL mice, ex vivo 36 h, annexin V): ~12 nM
- cell death, cytospin with Wright Geimsa stain ([2]; 100 nM, 12 hrs): death of blast-crisis CML cells
- apoptosis (Annexin V+ cells) ([2]; 6 and 12 hrs): induces apoptosis in BC-CML primary patient cells
- effect on normal HSCs ([3]; Kit+Sca1+Lin−GFP+ cells from MSCV-control mice, ex vivo 36 h): no adverse effects on HSCs or downstream progenitors; also recorded: did not affect the normal HSCs
- viability of MSCV-HSC control cells ([3]; antagonists/inhibitor 10 nM, Δ^12-PGJ3 25 nM, 36 h): not affected
- NF-κB activation, EMSA and Western blot of nuclear extracts [4]: lack of activation of NF-κB
- total colonies of human bone marrow cells [5]: had no effect
- splenomegaly ([6]; 0.05 mg/kg for 1 week): completely alleviated splenomegaly
- Kit+Sca1+GFP+ LSCs in the spleen ([6]; 1 week treatment): decreased
- Kit+Sca1+Lin−GFP+ LSCs in the bone marrow ([6]; 1 week treatment): eradicated
- leukocyte counts in peripheral blood ([6]; 1 week treatment): significantly decreased the leukocyte counts
- survival and relapse, comparison with imatinib ([6]; Imatinib 75 mg/kg, Δ^12-PGJ3 0.025 mg/kg, 1 week): prolonged survival, but no relapse of leukemia
- relapse after last dose ([6]; intraperitoneal, five weeks post last dose): no relapse
- survival ([6]; vehicle mice died two weeks after transplantation): rescued all of the mice
